Where two headings read alike, the source gives them in different places.
Key:
Assay type in all cases: cell-based
[1] = test system: human platelet-rich plasma; assay: Aggregation test of human platelet-rich plasma; conditions: for IC50: Homo sapiens, Platelet
Experimental: (§1) C. Platelet aggregation and ATP release reaction test
(§2) The method reported by Born (J. Physiol. 168, 178, 1963) was used to determine the platelet aggregation by a Lumi-aggregometer (Model 1020, Payton, Canada). Platelet suspension (0.4 ml) was added into a small glass tube coated with silicone, and stirred at 900 rpm with a small magnetic stirrer. Unless otherwise specified, the antagonist was added 1 minute before the inducing agent, and all the reactions were carried out at 37° C. The aggregation was calculated by following formula: […]
aggregation (% )=(light absorption before adding inducing agent-light absorption after adding inducing agent)/(light absorption before adding inducing agent-light absorption of Tyrode solution)×100%
(5 μM), Adrenaline (10 μM),

guinea-pig trachea = target: T1, guinea-pig trachea (Cavia porcellus, UniProt A0A286Y4I8); assay: Guinea-pig tracheal contraction caused by U-46619; conditions: for activity at 10 µM / activity at 30 µM / activity at 100 µM: guinea pig, read-out: Contraction (% of maximal contraction); for activity at 10 µM: cinnamophilin 10 μM; for activity at 30 µM: cinnamophilin 30 μM; for activity at 100 µM: cinnamophilin 100 μM
T1 construct: Tracheae from guinea-pigs were dissected out; from tissue; host or cells: guinea-pig trachea
T1 sequence (A0A286Y4I8 1-347): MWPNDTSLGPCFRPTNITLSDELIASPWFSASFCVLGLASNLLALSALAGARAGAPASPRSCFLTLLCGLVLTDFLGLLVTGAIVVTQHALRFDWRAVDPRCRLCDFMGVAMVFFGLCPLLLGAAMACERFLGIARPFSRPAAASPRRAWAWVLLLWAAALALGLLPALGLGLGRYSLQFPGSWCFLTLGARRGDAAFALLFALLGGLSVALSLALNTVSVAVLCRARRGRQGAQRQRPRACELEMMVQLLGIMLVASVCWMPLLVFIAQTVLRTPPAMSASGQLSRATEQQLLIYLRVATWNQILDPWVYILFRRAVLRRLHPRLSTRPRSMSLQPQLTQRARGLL
Experimental: B. Guinea-pig tracheal contraction
Tracheae from guinea-pigs were dissected out, transferred to a dish containing Krebs solution and cut transversely between the segments of cartilage. Several of these, usually about 5, were tied together so as to form a chain, which was then mounted in Krebs solution at 37° C., gassed with 95% O2 plus 5% CO2. One end of the chain was attached to a fixed pin in the bath and the other to a transducer connected to a Grass polygraph. Resting tension of each tissue was set at 1 g, Tracheae were allowed to equilibrate for at least 1 hr and washed-periodically.
Cumulative concentration-response curves were obtained by application of various concentrations of spasmogens for 15-18 min at 3 minutes intervals. Tracheal rings were pre-incubated with cinnamophilin for 15 min, then various concentrations of spasmogens were added for 15-18 min at 3 min intervals. Results were expressed as percentage of the maximal control response for each agonist.

rabbit platelets = assay: Aggregation of washed rabbit platelet suspension induced by AA, PAF, collagen, U-46619, ADP and thrombin
Experimental: A. Preparation of aggregation inducing agent
1. Collagen (bovine tendon) in 15 mM aqueous acetic acid was homogenized at 4° C. to form a well dispersed suspension in 1 mg/ml and stocked at -70° C. Before using, it was thawed and well homogenized.
2. PAF was dissolved in CCl4 and stocked at […] Before using, it was diluted with deionized water.
3. […] and sodium arachidonate (AA) were dissolved in deionized water for use.
B. Preparation of platelets
A suspension of platelets was prepared according to the reported method. EDTA (100 mM) and the blood obtained from rabbit's ear vein were mixed in the ratio of 1:4, and immediately centrifuged (120× g) at room temperature for 10 minutes. Platelet-rich plasma was subjected to further centrifuge (500× g) for another 10 minutes. After the plasma was removed, the platelets in the lower layer were suspended in the Tyrode solution containing EDTA (2 mM) and bovine serum albumin (3.5 mg/ml), and subjected to centrifuge (500× g) again for 10 minutes. The platelets obtained were suspended in a Tyrode solution containing no EDTA, and was adjusted to about 4.5×10^8 cells/ml by a cell counter. 1 mM of calcium ion (Ca^2+) was added to the suspension. 30 minutes after the addition, the experiment was conducted. The composition of Tyrode […]: NaCl (136.9), KCl (2.7), NaH2 PO4 (0.4), NaHCO3 (11.9), glucose (11.1).
as §1, §2
aggregation (% )=(light absorption before adding inducing agent-light absorption after adding inducing agent)/(light absorption before adding inducing agent-light absorption of Tyrode solution)×100% […]
| Platelets were precincubated with 1a, 1b, 1c, 1e, 2 or DMSO (0.5%, | control) at 37° C. for 3 min, then the inducer was added.

## COc1cc(CC(C)C(C)C(=O)c2ccc(O)c(OC)c2)ccc1O (stereo not shown) [Compound 1, cinnamophilin]
[1]; human platelet-rich plasma, inducer A-23187 5 μM, read-out: IC50, platelet aggregation
  IC50: > 30 µM
[1]; human platelet-rich plasma, inducer ADP 5 μM, First Phrase, read-out: IC50, platelet aggregation, first phase
  IC50: > 30 µM
[1]; human platelet-rich plasma, inducer ADP 5 μM, Second Phrase, read-out: IC50, platelet aggregation, second phase
  IC50: 6 ± 0.6 µM
[1]; human platelet-rich plasma, inducer U-46619 1 μM, read-out: IC50, platelet aggregation
  IC50: 3 ± 0.4 µM
[1]; human platelet-rich plasma, inducer adrenaline 10 μM, First Phrase, read-out: IC50, platelet aggregation, first phase
  IC50: > 30 µM
[1]; human platelet-rich plasma, inducer adrenaline 10 μM, Second Phrase, read-out: IC50, platelet aggregation, second phase
  IC50: 7.6 ± 0.9 µM
[1]; human platelet-rich plasma, inducer arachidonic acid (AA) 800 μM, read-out: IC50, platelet aggregation
  IC50: 5 ± 0.4 µM
[1]; human platelet-rich plasma, inducer collagen, read-out: IC50, platelet aggregation
  IC50: 5.6 ± 0.6 µM
[1]; U-46619
  inhibition of U-46619 induced platelet aggregation: potential inhibition
[1]; human platelet-rich plasma, ADP and adrenaline
  inhibition of second phase aggregation: inhibit second phase aggregation
[1]; induced by AA, ADP, collagen, U-46619, A-23187
  inhibition of platelet aggregation: potentially to inhibit the platelet aggregation
guinea-pig trachea; against U-46619, read-out: pA2, guinea-pig tracheal contraction induced by U-46619 (converted)
  Kb: 6.31 µM
guinea-pig trachea; U-46619 0.01 μM
  activity at 10 µM: 5.7 ± 2%
guinea-pig trachea; U-46619 0.02 μM
  activity at 10 µM: 17.1 ± 4.5%
  activity at 30 µM: 3%
guinea-pig trachea; U-46619 0.05 μM
  activity at 10 µM: 35 ± 5%
  activity at 30 µM: 11 ± 3%
  activity at 100 µM: 0%
guinea-pig trachea; U-46619 0.1 μM
  activity at 10 µM: 52 ± 5%
  activity at 30 µM: 22 ± 4%
  activity at 100 µM: 5 ± 3%
guinea-pig trachea; U-46619 0.2 μM
  activity at 10 µM: 70 ± 6%
  activity at 30 µM: 35 ± 4%
  activity at 100 µM: 15 ± 3%
guinea-pig trachea; U-46619 0.5 μM
  activity at 10 µM: 79 ± 4%
  activity at 30 µM: 52 ± 5%
  activity at 100 µM: 27 ± 4.5%
guinea-pig trachea; U-46619 1 μM
  activity at 10 µM: 85 ± 5%
  activity at 30 µM: 67 ± 4%
  activity at 100 µM: 41 ± 4%
guinea-pig trachea; U-46619 2 μM
  activity at 10 µM: 90 ± 4%
  activity at 30 µM: 80 ± 4.5%
  activity at 100 µM: 55 ± 5.7%
guinea-pig trachea; U-46619 5 μM
  activity at 10 µM: 94 ± 4%
  activity at 30 µM: 88 ± 5%
  activity at 100 µM: 68 ± 5.7%
guinea-pig trachea; U-46619 10 μM
  activity at 30 µM: 92 ± 5%
  activity at 100 µM: 78 ± 3%
Rabbit platelets; inducer AA (100 μM), conc 5 μM, control 92.1 ± 1.3
  Aggregation (%): 83.8 ± 4.6%
Rabbit platelets; inducer AA (100 μM), conc 10 μM, control 92.1 ± 1.3
  Aggregation (%): 79.0 ± 6.3%
Rabbit platelets; inducer AA (100 μM), conc 20 μM, control 92.1 ± 1.3
  Aggregation (%): 42.4 ± 3.0%
Rabbit platelets; inducer AA (100 μM), conc 50 μM, control 92.1 ± 1.3
  Aggregation (%): 3.8 ± 3.5%
Rabbit platelets; inducer ADP (20 μM), conc 300 μM, control 81.6 ± 3.0
  Aggregation (%): 75.6 ± 9.2%
Rabbit platelets; inducer PAF (2 ng/ml), conc 300 μM, control 91.7 ± 2.0
  Aggregation (%): 83.5 ± 8.0%
Rabbit platelets; inducer U-46619 (1 μM), conc 200 μM, control 89.4 ± 1.2
  Aggregation (%): 22.1 ± 2.4%
Rabbit platelets; inducer collagen (10 μg/ml), conc 50 μM, control 93.6 ± 1.0
  Aggregation (%): 87.0 ± 1.6%
Rabbit platelets; inducer collagen (10 μg/ml), conc 100 μM, control 93.6 ± 1.0
  Aggregation (%): 44.7 ± 10.0%
Rabbit platelets; inducer collagen (10 μg/ml), conc 200 μM, control 93.6 ± 1.0
  Aggregation (%): 0.0 ± 0.0%
Rabbit platelets; inducer thrombin (0.1 U/ml), conc 300 μM, control 94.8 ± 2.0
  Aggregation (%): 94.6 ± 1.4%
